Assay results reported in BindingDB's records for doi:10.1039/d0md00137f (University of Regensburg, 2020).

Target: Muscarinic acetylcholine receptor M2 (Homo sapiens) (UniProt P08172)
Assay: Displacement of [3H]NMS from human recombinant muscarinic receptor M2 expressed in […] cell membranes measured after 3 hrs by radioligand competition binding assay

| Ki [nM] | SMILES |
| --- | --- |
| 0.589 | NCCNC(=O)CCc1cn(CCCCC2CCN(CC(=O)N3c4ccccc4NC(=O)c4ccccc43)CC2)cn1 |
| 3 | Cc1cc(/C=C/C=C/c2ccc(N(C)C)cc2)cc(C)[n+]1CCN1CCN(CCCCC2CCN(CC(=O)N3c4ccccc4NC(=O)c4ccccc43)CC2)CC1 |
